Experimental data as given in PubChem BioAssay AID1963866 (Molecular Pharmacology Branch, DTP, NCI, 2024).

Test system: PDC KRAS tumor spheroids with HUVEC/MSC, viability
Test: Anticancer human tumor 349418-098-R-PDC patient-derived lung adenocarcinoma cell line growth inhibition [KRAS2]
Conditions: for IC50: curve of first compound; for viability, T/C: stronger effect = lower value
Summary of the method: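 KRAS-mutant tumor cells were grown as spheroids with HUVEC endothelial cells and human MSCs as stroma. Targeted agents were tested alone and with KRAS pathway inhibitors. Doses started at or near clinical Cmax, or 10 microM, descending half-log.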

[1] = second compound 0.1 µM, first compound 0.0316 µM
[2] = second compound 0.1 µM, first compound 0.1 µM
[3] = second compound 0.1 µM, first compound 0.316 µM
[4] = second compound 0.1 µM, first compound 1 µM
[5] = second compound 0.1 µM, first compound 3.16 µM
[6] = second compound 0.1 µM, first compound 10 µM
[7] = second compound 0.316 µM, first compound 0.0316 µM
[8] = second compound 0.316 µM, first compound 0.1 µM
[9] = second compound 0.316 µM, first compound 0.316 µM
[10] = second compound 0.316 µM, first compound 1 µM
[11] = second compound 0.316 µM, first compound 3.16 µM
[12] = second compound 0.316 µM, first compound 10 µM
[13] = second compound 1 µM, first compound 0.0316 µM
[14] = second compound 1 µM, first compound 0.1 µM
[15] = second compound 1 µM, first compound 0.316 µM
[16] = second compound 1 µM, first compound 1 µM
[17] = second compound 1 µM, first compound 3.16 µM
[18] = second compound 1 µM, first compound 10 µM
[19] = second compound 3.16 µM, first compound 0.0316 µM
[20] = second compound 3.16 µM, first compound 0.1 µM
[21] = second compound 3.16 µM, first compound 0.316 µM
[22] = second compound 3.16 µM, first compound 1 µM
[23] = second compound 3.16 µM, first compound 3.16 µM
[24] = second compound 3.16 µM, first compound 10 µM
[25] = second compound 10 µM, first compound 0.0316 µM
[26] = second compound 10 µM, first compound 0.1 µM
[27] = second compound 10 µM, first compound 0.316 µM
[28] = second compound 10 µM, first compound 1 µM
[29] = second compound 10 µM, first compound 3.16 µM
[30] = second compound 10 µM, first compound 10 µM
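Also: spheroids exposed to compounds for seven days before readout.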

Row | SMILES | IC50 (second compound 0.1 µM) | IC50 (second compound 0.316 µM) | IC50 (second compound 1 µM) | IC50 (second compound 3.16 µM) | IC50 (second compound 10 µM) | viability, T/C [1] | viability, T/C [2] | viability, T/C [3] | viability, T/C [4] | viability, T/C [5] | viability, T/C [6] | viability, T/C [7] | viability, T/C [8] | viability, T/C [9] | viability, T/C [10] | viability, T/C [11] | viability, T/C [12] | viability, T/C [13] | viability, T/C [14] | viability, T/C [15] | further results
1 | COc1cc(Nc2ncc3c(n2)-c2ccc(Cl)cc2C(c2c(F)cccc2OC)=NC3)ccc1C(=O)O + CC1OCC2(CCN(c3cnc(Sc4ccnc(N)c4Cl)c(N)n3)CC2)C1N | 43.1 nM | 43.6 nM | 50.2 nM | < 31.6 nM | 33.6 nM | 56.5% | 32.4% | 32.4% | 40.1% | 30.8% | 24% | 57.4% | 27.8% | 38.8% | 26.4% | 40.2% | 20.4% | 57.4% | 35.4% | 39% | viability, T/C [16]: 38.1%; viability, T/C [17]: 27.3%; viability, T/C [18]: 25%; viability, T/C [19]: 39.4%; viability, T/C [20]: 36.3%; viability, T/C [21]: 28%; viability, T/C [22]: 28.7%; viability, T/C [23]: 32.9%; viability, T/C [24]: 28.4%; viability, T/C [25]: 51%; viability, T/C [26]: 33.5%; viability, T/C [27]: 32.8%; viability, T/C [28]: 31.1%; viability, T/C [29]: 31.4%; viability, T/C [30]: 27%
2 | COc1cc2nccc(Oc3ccc(NC(=O)C4(C(=O)Nc5ccc(F)cc5)CC4)cc3)c2cc1OC + CC1OCC2(CCN(c3cnc(Sc4ccnc(N)c4Cl)c(N)n3)CC2)C1N | 1700 nM | 1670 nM | 1530 nM | 1430 nM | 1350 nM | 113% | 104% | 99.9% | 78.6% | 12.3% | 21.2% | 108% | 98.4% | 96.1% | 79.1% | 10.4% | 17.9% | 104% | 114% | 99.5% | viability, T/C [16]: 68.7%; viability, T/C [17]: 14.3%; viability, T/C [18]: 22.5%; viability, T/C [19]: 94.4%; viability, T/C [20]: 99.7%; viability, T/C [21]: 85.6%; viability, T/C [22]: 66.1%; viability, T/C [23]: 13.7%; viability, T/C [24]: 15.5%; viability, T/C [25]: 86.4%; viability, T/C [26]: 80.9%; viability, T/C [27]: 72.6%; viability, T/C [28]: 61.5%; viability, T/C [29]: 16.8%; viability, T/C [30]: 17.3%
3 | O=C(c1cc(Cc2n[nH]c(=O)c3ccccc23)ccc1F)N1CCN(C(=O)C2CC2)CC1 + CC1OCC2(CCN(c3cnc(Sc4ccnc(N)c4Cl)c(N)n3)CC2)C1N | 4710 nM | 3270 nM | 4240 nM | 2800 nM | 1450 nM | 95.9% | 89.7% | 89% | 81.3% | 63.5% | 25.3% | 78.8% | 82.6% | 77.3% | 78.5% | 50.6% | 29.2% | 107% | 97.3% | 81.8% | viability, T/C [16]: 59.9%; viability, T/C [17]: 66.7%; viability, T/C [18]: 33%; viability, T/C [19]: 90.8%; viability, T/C [20]: 84%; viability, T/C [21]: 68.6%; viability, T/C [22]: 70.6%; viability, T/C [23]: 48.3%; viability, T/C [24]: 23.9%; viability, T/C [25]: 80.9%; viability, T/C [26]: 72.8%; viability, T/C [27]: 59.2%; viability, T/C [28]: 56.6%; viability, T/C [29]: 44.1%; viability, T/C [30]: 29.7%
